Source: patent publication US20190175671A1, “MICRORNA 22 REGULATORS COMPOSITIONS AND METHODS AND USES THEREOF” (priority 2017, published 2019)

What was measured:
[1] = tested on: Interferon Regulatory Factor 9; conditions: cited from earlier work
[2] = tested on: MIR22HG; assay: Expression of long non-coding RNA MIR22HG
[3] = tested on: microRNA 22; conditions: pancreatic cancer cells; cited from earlier work

CC(=O)Nc1ccc(O)cc1 [Acetaminophen]
effect on IRF9 [1]: inhibitor

CC(NCCC(c1ccccc1)c1ccccc1)c1ccccc1 (stereo not drawn) [Fendiline]
expression of lncRNA MIR22HG [2]: upregulates

COc1cc(/C=C/C(=O)CC(=O)/C=C/c2ccc(O)c(OC)c2)ccc1O [curcumin, diferuloylmethane]
expression of microRNA 22 [3]: upregulation
